# Laboratory results from patent publication US5854282A, “3-benzoyl benzofuran derivatives as thyroid hormone antagonists” (Karo Bio AB, priority 1994, dated 1998).
# Assays:
# [1] = target: T1, human thyroid hormone receptor β1 (ThRβ1) (Homo sapiens, UniProt P10828); assay: Competition with 125I-T3 for binding to human thyroid hormone receptor β1 (ThRβ1); settings: competition with 0.2 nM 125I-T3
# T1 sequence (P10828 1-461): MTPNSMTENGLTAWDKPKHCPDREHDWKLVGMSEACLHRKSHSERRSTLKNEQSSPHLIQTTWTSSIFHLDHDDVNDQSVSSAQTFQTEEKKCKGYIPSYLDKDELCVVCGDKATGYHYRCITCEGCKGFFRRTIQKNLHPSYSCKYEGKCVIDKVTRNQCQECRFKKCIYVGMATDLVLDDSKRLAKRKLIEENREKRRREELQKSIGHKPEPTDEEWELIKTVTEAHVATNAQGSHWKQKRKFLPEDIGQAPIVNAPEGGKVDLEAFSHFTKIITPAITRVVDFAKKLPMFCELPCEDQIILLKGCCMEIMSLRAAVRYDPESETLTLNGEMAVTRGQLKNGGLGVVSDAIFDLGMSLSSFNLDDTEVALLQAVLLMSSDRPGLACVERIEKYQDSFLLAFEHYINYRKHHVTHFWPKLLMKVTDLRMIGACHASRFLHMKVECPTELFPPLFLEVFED
# Procedure: (§1) A series of dilutions of each compound produced (Examples 1-15) were allowed to compete with a fixed concentration (0.2 nM) of ^125 I-T3 for binding to the human thyroid hormone receptor β1 (ThRβ1). In some examples, binding to the human thyroid hormone receptor α1 (ThRα1) was included.
# (§2) After reaching equilibrium a separation step on Sephadex-G25 columns was introduced whereby the receptors were separated from compounds of low molecular weight (i.e the radioactive labeled hormones). The eluated receptor bound radioactivity was measured in a gamma-counter or with regular liquid scintillation counting.
# (§3) An IC50 -value (The concentration of compound required to inhibit 50% of the binding of radioactive labeled hormone) was calculated from the curves.
# [2] = target: T2, human thyroid hormone receptor α1 (ThRα1) (Homo sapiens, UniProt P10827); assay: Competition with 125I-T3 for binding to human thyroid hormone receptor α1 (ThRα1); settings: competition with 0.2 nM 125I-T3
# T2 sequence (P10827 1-410 isoform P10827-2): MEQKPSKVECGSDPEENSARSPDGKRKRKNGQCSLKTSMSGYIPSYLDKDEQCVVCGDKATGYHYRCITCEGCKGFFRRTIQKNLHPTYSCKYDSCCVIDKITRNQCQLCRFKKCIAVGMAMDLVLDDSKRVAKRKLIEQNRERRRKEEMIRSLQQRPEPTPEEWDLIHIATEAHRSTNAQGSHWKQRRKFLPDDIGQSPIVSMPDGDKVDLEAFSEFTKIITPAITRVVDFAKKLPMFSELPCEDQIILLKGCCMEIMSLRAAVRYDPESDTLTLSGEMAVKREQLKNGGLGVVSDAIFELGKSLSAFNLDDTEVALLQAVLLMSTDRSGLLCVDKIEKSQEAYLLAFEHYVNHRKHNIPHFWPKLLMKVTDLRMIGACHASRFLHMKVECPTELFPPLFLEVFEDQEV
# Procedure: as §1, §2, §3
# [3] = target: T3, human thyroid hormone receptor α (Homo sapiens, UniProt P10827); assay: ALP reporter gene activity in TRAF α thyroid hormone reporter cells (agonism/antagonism ± T3); assay type: cell-based; settings: for antagonism to T3 in the ThRα reporter cell line / augmention of the agonism of T3 in the ThRα reporter cell line: in the presence of 1 nM T3; for partial agonist/antagonist activity in the ThRα reporter cell line: ±1 nM T3
# T3 sequence (P10827 1-370): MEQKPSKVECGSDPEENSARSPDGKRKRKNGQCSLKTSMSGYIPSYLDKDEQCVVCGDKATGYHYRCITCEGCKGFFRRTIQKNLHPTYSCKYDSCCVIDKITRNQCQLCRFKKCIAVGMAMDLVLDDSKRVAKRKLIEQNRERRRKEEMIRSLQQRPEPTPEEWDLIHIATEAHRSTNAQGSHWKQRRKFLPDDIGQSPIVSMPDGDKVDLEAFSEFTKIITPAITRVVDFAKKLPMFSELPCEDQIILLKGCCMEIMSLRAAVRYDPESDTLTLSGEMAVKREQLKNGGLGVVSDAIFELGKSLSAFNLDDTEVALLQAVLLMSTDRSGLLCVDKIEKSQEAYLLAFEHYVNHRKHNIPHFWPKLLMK
# Procedure: (§4) The biological activity of compounds in accordance with the invention was tested in thyroid hormone responsive reporter cell lines.
# (§5) The thyroid hormone reporter cell lines (TRAF α and TRAF β) are genetically engineered, mammalian cell lines expressing thyroid hormone receptor (ThR) α and β, respectively. These thyroid hormone responding cell lines contain stable integrated artificial transcription units comprised of a thyroid hormone response element (TRE) and core promoter sequences fused to a downstream reporter gene encoding a secreted form of alkaline phosphatase (ALP).
# (§6) In the absence of thyroid hormone the cells express only very low levels of the ALP reporter protein. […] The level of thyroid hormone dependent ALP protein expressed can be determined indirectly by an enzymatic chemiluminescence assay as previously described (Advances in Steroid Analysis '93, editor: Gorog S., Proceedings of the 5th Symposium on the analysis of Steroids, Published by Akademiai Kiado, Budapest, Hungary, p. 57-67). Briefly, an aliquot of the conditioned cell culture medium is mixed with AMPPD (disodium 3-4-methoxyspiro(1,2-dioxetane-3,2'-tricyclo(3,3.1)decan)-4-yl) phenyl phosphate containing assay buffer and incubated at 37° C. for 20 minutes. AMPPD was purchased from Boule Diagnostic, Sweden. The ALP in the medium sample dephosphorylates AMPPD generating an unstable intermediate which decomposes and emits light which is measured in a microplate format luminometer (Luminoskan, Labsystems, Finland). The rate of light emission is directly proportional to the level of ALP present in the sample.
# The TRAF α and β cells, respectively, were seeded at a density of 2-2.5×10^4 cells/well in 96-well microtiterplates (suitable for growth of mammalian cells). The cells were seeded in Coon's medium (without phenolred) (SVA, Uppsala, Sweden)+10% FCS (Gibco-BRL) (hormone stripped) and cultivated overnight at 37° C. and 5% CO2 in a humidified incubator.
# The cells were then cultivated at 37° C. and 5% CO2 in a humidified incubator for an additional 48 hours.
# 48 hours post addition of the hormonal/test compounds, cell number and cell morphology were examined under the light-microscope. A 10 μl aliquot of conditioned medium from each well was then transferred to white microtiterplates and assayed for the level of ALP reporter protein expressed (as described in Advances in Steroid Analysis '93 above). In addition, the cell toxic effect of compounds was determined by the colorimetric MTS/PMS assay according to the suppliers recommendation (Promega Corp. through Scandinavian Diagnostic Services, Sweden)
# Hormone/test compounds added to the TRAF α and β reporter cells, respectively, per well in 96-well microtiter plates
# [4] = target: T4, human thyroid hormone receptor β (Homo sapiens, UniProt P10828); assay: ALP reporter gene activity in TRAF β thyroid hormone reporter cells (agonism/antagonism ± T3); assay type: cell-based; settings: for antagonist activity in the ThRβ reporter cell line: in the presence of 1 nM T3
# T4 sequence (P10828 1-461): T1 sequence (P10828 1-461)
# Procedure: as §4, §5, §6
# The TRAF α and β cells, respectively, were seeded at a density of 2-2.5×10^4 cells/well in 96-well microtiterplates (suitable for growth of mammalian cells). […]
# 48 hours post addition of the hormonal/test compounds, cell number and cell morphology were examined under the light-microscope. […] In addition, the cell toxic effect of compounds was determined by the colorimetric MTS/PMS assay according to the suppliers recommendation (Promega Corp. through Scandinavian Diagnostic Services, Sweden) […]
Structure (SMILES),IC50 [1],IC50 [2],further results
"CC(C)c1oc2ccc(NS(=O)(=O)C(F)(F)F)cc2c1Cc1cc(I)c(OCC(=O)O)c(I)c1 [Example 5, 2-Isopropyl-3-(3,5-diiodo-4-carboxymethoxybenzyl)-5-trifluoromethylsulphonamidobenzofuran]",7.94 µM,–,antagonism to T3 in the ThRα reporter cell line [3]: no antagonism to T3; augmention of the agonism of T3 in the ThRα reporter cell line [3]: concentration dependent augmention of the agonism of T3
"CC(C)c1oc2ccc(NS(=O)(=O)C(F)(F)F)cc2c1C(=O)c1cc(I)c(OCC(=O)O)c(I)c1 [Example 6, 2-isopropyl-3-(3,5-diiodo-4-carboxymethoxybenzoyl)-5-trifluoromethylsulphonamidobenzofuran]",3.72 µM,–,–
"COc1ccc(C(=O)Nc2ccc3oc(C(C)C)c(C(=O)c4cc(I)c(OCC(=O)O)c(I)c4)c3c2)cc1 [Example 7, 2-Isopropyl-3-(3,5-diiodo-4-carboxymethoxybenzoyl)-5-(4-methoxybenzamido)benzofuran]",3.63 µM,–,–
"CC(C)c1oc2ccc(NC(=O)c3ccc([N+](=O)[O-])cc3)cc2c1C(=O)c1cc(I)c(OCC(=O)O)c(I)c1 [Example 10, 2-Isopropyl-3-(3,5-diiodo-4-carboxymethoxybenzoyl)-5-(4-nitrobenzamido)benzofuran]",4.27 µM,–,–
"CCCCc1oc2ccc(NC(=O)Nc3ccc(OC)cc3)cc2c1C(=O)c1cc(I)c(OCC(=O)O)c(I)c1 [Example 11, 2-n-Butyl-3-(3,5-diiodo-4-carboxymethoxybenzoyl)-5-(4-methoxyphenylureido)benzofuran]",3.72 µM,3.24 µM,partial agonist/antagonist activity in the ThRα reporter cell line [3]: partial agonist/antagonist activity; partial agonist/antagonist activity in the ThRβ reporter cell line ([4]; ±1 nM T3): partial agonist/antagonist activity
CCCCc1oc2ccc(NC(=O)C(C)C)cc2c1C(=O)c1cc(I)c(OCC(=O)O)c(I)c1 [Example 2],6.61 µM,–,antagonism to T3 in the ThRα reporter cell line [3]: no antagonism to T3; augmention of the agonism of T3 in the ThRα reporter cell line [3]: concentration dependent augmention of the agonism of T3

# Now from value to molecule, other results behind:
IC50 [1],IC50 [2],Structure (SMILES),further results
2.4 µM,2.57 µM,"CCCCc1oc2ccc(NC(=O)c3ccc(O)cc3)cc2c1C(=O)c1cc(Br)c(OCC(=O)O)c(Br)c1 [Example 13, 2-n-Butyl-3-(3,5-dibromo-4-carboxymethoxybenzoyl)-5-(4-hydroxybenzamido)benzofuran]",–
3.55 µM,3.31 µM,"CCCCc1oc2ccc(NC(=O)c3ccc(F)cc3)cc2c1C(=O)c1cc(I)c(OCC(=O)O)c(I)c1 [Example 9, 2-n-Butyl-3-(3,5-diiodo-4-carboxymethoxybenzoyl)-5-(4-fluorobenzamido)benzofuran]",–
1.51 µM,–,"CCCCc1oc2ccc(NC(=O)c3ccc(OC)cc3)cc2c1C(=O)c1cc(I)c(OCC(=O)O)c(I)c1 [Example 3, 2-n-Butyl-3-(3,5-diiodo-4-carboxymethoxybenzoyl)-5-(4-methoxybenzamido)benzofuran]",–
3.47 µM,3.63 µM,"COc1ccc(C(=O)Nc2ccc3oc(C(C)C)c(C(=O)c4cc(Br)c(OCC(=O)O)c(Br)c4)c3c2)cc1 [Example 14, 2-Isopropyl-3-(3,5-dibromo-4-carboxymethoxybenzoyl)-5-(4-methoxybenzamido)benzofuran]",partial agonist/antagonist activity in the ThRα reporter cell line [3]: partial agonist/antagonist activity; antagonist activity in the ThRβ reporter cell line [4]: no or only weak antagonist activity
1.82 µM,–,"CC(C)c1oc2ccc(NC(=O)c3ccc(O)cc3)cc2c1C(=O)c1cc(I)c(OCC(=O)O)c(I)c1 [Example 8, 2-Isopropyl-3-(3,5-diiodo-4-carboxymethoxybenzoyl)-5-(4-hydroxybenzamido)benzofuran]",–
2.04 µM,2.51 µM,"CCCCc1oc2ccc(NC(=O)c3ccc(O)cc3)cc2c1C(=O)c1cc(I)c(OCC(=O)O)c(I)c1 [Example 4, 2-n-Butyl-3-(3,5-diiodo-4-carboxymethoxybenzoyl)-5-(4-hydroxybenzamido)benzofuran]",–
3.31 µM,3.09 µM,"CC(C)c1oc2ccc(NC(=O)c3ccc(O)cc3)cc2c1C(=O)c1cc(Br)c(OCC(=O)O)c(Br)c1 [Example 15, 2-Isopropyl-3-(3,5-dibromo-4-carboxymethoxybenzoyl)-5-(4-hydroxybenzamido)benzofuran]",partial agonist/antagonist activity in the ThRα reporter cell line [3]: partial agonist/antagonist activity; antagonist activity in the ThRβ reporter cell line [4]: no or only weak antagonist activity
1.26 µM,1.82 µM,"CCCCc1oc2ccc(NC(=O)Nc3ccc(O)cc3)cc2c1C(=O)c1cc(I)c(OCC(=O)O)c(I)c1 [Example 12, 2-n-Butyl-3-(3,5-diiodo-4-carboxymethoxybenzoyl)-5-(4-hydroxyphenylureido)benzofuran]",–
2.24 µM,–,"CCCCc1oc2ccc(NS(=O)(=O)C(F)(F)F)cc2c1C(=O)c1cc(I)c(OCC(=O)O)c(I)c1 [Example 1, 2-n-Butyl-3(3,5-diiodo-4-carboxymethoxybenzoyl)-5-trifluoromethylsulphonamidobenzofuran]",antagonism to T3 in the ThRα reporter cell line [3]: no antagonism to T3; augmention of the agonism of T3 in the ThRα reporter cell line [3]: concentration dependent augmention of the agonism of T3
